Laboratory results: patent US5733749A, “Glycerol phosphatase with stereo-specific activity” (priority 1995, dated 1998)
“Also recorded” adds a separate entry of the source. One block for each molecule: values may come before it.

Experiments:
B. licheniformis D-GPase [1] = target: T1, B. licheniformis D-GPase (Bacillus licheniformis, UniProt Q65CZ1); experiment: GPase activity assay, substrate specificity (HPLC of glycerol or dephosphorylated compound); type: biochemical; conditions: PNPP at 1.5 mM read at 420 nm
T1 construct: about 25 kDa by gel filtration
T1 sequence (Q65CZ1 1-216): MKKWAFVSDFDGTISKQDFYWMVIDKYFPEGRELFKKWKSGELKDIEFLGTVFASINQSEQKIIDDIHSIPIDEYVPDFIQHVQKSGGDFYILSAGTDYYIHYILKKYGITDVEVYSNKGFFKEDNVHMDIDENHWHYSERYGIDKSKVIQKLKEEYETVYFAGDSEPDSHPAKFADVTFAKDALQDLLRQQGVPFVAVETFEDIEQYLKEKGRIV
Method: (§1) GPase activity was measured by combining cell extract and the appropriate stereoisomer(s) (DL or L) of GP, incubating the mixture, terminating the reaction with acid, and determining the glycerol content by high-performance liquid chromatography (HPLC) analysis. Assay mixtures consisted of, in a total of 500 μl:25 mM MgCl2; 25-50 mM PIPES [piperazine-N,N'-bis(2-ethanesulfonic acid)], pH 7.1; 25-100 mM substrate; and the required volume of cell extract. Incubations were carried out at 37° C. for 30-150 min in microcentrifuge tubes, then 72 μl of 20% trichloroacetic acid (TCA) was added (2.5% final) to each tube to stop the reaction. The samples were spun in a microcentrifuge to remove any precipitate, and the supernatants were filtered through Supor-200 0.2 μm membrane filters (Gelman Sciences, Ann Arbor, Mich.) and analyzed for glycerol by HPLC. Assays for dephosphorylation of other compounds were also analyzed by HPLC (for the dephosphorylated compound) and carried out in the same way as the assays with GP as substrate. Assays for p-nitrophenyl phosphate (PNPP) hydrolysis were the same as with GP as substrate but were carried out with 1.5 mM PNPP in microtiter plates, and absorbance at 420 nm was used to measure the extent of hydrolysis of PNPP. Calf intestinal alkaline phosphatase was used as a standard to ensure that PNPP could be hydrolyzed under the conditions of the assay.
Glycerol in fermentation broths and assay mixtures was measured by HPLC. The mobile phase was 0.01N H2 SO4, run at a flow rate of 0.6 ml/min through an Aminex HPX-87H organic acids column (Bio-Rad, Hercules, Calif.), which was maintained at 65° C. Samples were injected by a model AS-100 autosampler, and chromatograms were printed by a model 3392A integrator; the detector was a model 1770 differential refractometer (all from Bio-Rad).
Upon the finding that a GPase was present in B. licheniformis extracts, the inventors sought to determine which GP isomers are dephosphorylated by the enzyme and whether some other common phosphorylated metabolites can also be accepted as substrates. Because the initial assays were conducted with DL-GP, which also contained a small amount of β-GP, the specificity of the enzyme was unclear. HPLC chromatograms of reactions were run with crude cell extract and either DL-GP, L-GP, or β-GP. […] The low activity with pure β-GP rules out the possibility that the activity seen in assays with DL-GP is due to the presence of β-GP as an impurity in the DL-GP preparation.

[S. cerevisiae] α-GPase = Gancedo et al. 1968; cited from earlier work
B. licheniformis D-GPase [2] = target: T1, B. licheniformis D-GPase; experiment: Effect of ADP and inorganic phosphate on D-GPase activity; type: biochemical
Method: GPase activity was measured by combining cell extract and the appropriate stereoisomer(s) (DL or L) of GP, incubating the mixture, terminating the reaction with acid, and determining the glycerol content by high-performance liquid chromatography (HPLC) analysis. Assay mixtures consisted of, in a total of 500 μl:25 mM MgCl2 ; 25-50 mM PIPES [piperazine-N,N'-bis(2-ethanesulfonic acid)], pH 7.1; 25-100 mM substrate; and the required volume of cell extract. Incubations were carried out at 37° C. for 30-150 min in microcentrifuge tubes, then 72 μl of 20% trichloroacetic acid (TCA) was added (2.5% final) to each tube to stop the reaction. The samples were spun in a microcentrifuge to remove any precipitate, and the supernatants were filtered through Supor-200 0.2 μm membrane filters (Gelman Sciences, Ann Arbor, Mich.) and analyzed for glycerol by HPLC. Assays for dephosphorylation of other compounds were also analyzed by HPLC (for the dephosphorylated compound) and carried out in the same way as the assays with GP as substrate. Assays for p-nitrophenyl phosphate (PNPP) hydrolysis were the same as with GP as substrate but were carried out with 1.5 mM PNPP in microtiter plates, and absorbance at 420 nm was used to measure the extent of hydrolysis of PNPP. Calf intestinal alkaline phosphatase was used as a standard to ensure that PNPP could be hydrolyzed under the conditions of the assay.
Assays that were analyzed for inorganic phosphate instead of glycerol were carried out using the procedure of Marsh, Biochim. […] Blanks were identical assays except without substrate.

carbonic anhydrase = conditions: read-out: Km of carbonic anhydrase for carbon dioxide; cited from earlier work
threonine deaminase = conditions: cited from earlier work
B. licheniformis D-GPase [3] = target: T1, B. licheniformis D-GPase; type: biochemical; conditions: for Relative activity: chloride of the cation added at 25 mM
Method: as §1
L-GPases reported in the literature require divalent magnesium. Therefore, the inventors tested the effects of addition of the chlorides of three divalent cations: magnesium, manganese, and calcium (25 mM each).

β-galactosidase = conditions: read-out: Km of β-galactosidase for lactose; cited from earlier work

Molecule: D-glyceraldehyde phosphate
- accepted as substrate / hydrolysis by D-GPase (B. licheniformis D-GPase [1]; phosphate): little or no hydrolysis; also recorded: does not accept

Molecule: O=P(O)(O)OC[C@@H](O)CO [D-GP, D-α-glycerophosphate]
- efficiency of α-GPase on D-GP relative to that on L-GP ([S. cerevisiae] α-GPase): 1/30

- D-GPase activity retained (B. licheniformis D-GPase [2]; in the presence of 25 mM inorganic phosphate, in vitro hydrolysis of D-GP): 75%
- inhibition of D-GPase activity (B. licheniformis D-GPase [2]; inorganic phosphate present in assays of B. licheniformis extracts): did not acutely inhibit
Molecule: O=P(O)(O)O [inorganic phosphate]

Molecule: O=C=O [carbon dioxide]
- Km (carbonic anhydrase): ~8 mM

Molecule: C[C@@H](O)[C@H](N)C(=O)O [threonine]
- Km (threonine deaminase): ~5 mM

Molecule: O=P(O)(O)OC[C@H]1OC(O)[C@H](O)[C@@H](O)[C@@H]1O (some centres unmarked) [glucose-6-phosphate]
- accepted as substrate / hydrolysis by D-GPase (B. licheniformis D-GPase [1]): little or no hydrolysis; also recorded: does not accept

Molecule: O=C(O)[C@H](O)COP(=O)(O)O [D-3-phosphoglyceric acid]
- accepted as substrate / hydrolysis by D-GPase (B. licheniformis D-GPase [1]): little or no hydrolysis; also recorded: does not accept

Molecule: [Mg+2] [Mg^2+]
- Relative activity (B. licheniformis D-GPase [3]): 1.00

- accepted as substrate / hydrolysis by D-GPase (B. licheniformis D-GPase [1]): does not accept
Molecule: O=P(O)(O)OC(CO)CO [β-glycerophosphate]

Molecule: [Mn+2] [Mn^2+]
- Relative activity (B. licheniformis D-GPase [3]): 0.53

Molecule: OC[C@H]1O[C@@H](O[C@H]2[C@H](O)[C@@H](O)C(O)O[C@@H]2CO)[C@H](O)[C@@H](O)[C@H]1O (some centres unmarked) [lactose]
- Km (β-galactosidase): ~4 mM

- accepted as substrate / hydrolysis by D-GPase (B. licheniformis D-GPase [1]): does not accept
Molecule: O=P(O)(O)OC[C@H](O)CO [L-α-glycerophosphate]

Molecule: [Ca+2] [Ca^2+]
- inhibition of D-GPase activity by the cation (B. licheniformis D-GPase [3]; 25 mM chloride): does not inhibit D-GPase activity
- Relative activity (B. licheniformis D-GPase [3]): 0.08

Molecule: Nc1ncnc2c1ncn2[C@@H]1O[C@H](COP(=O)(O)OP(=O)(O)O)[C@@H](O)[C@H]1O [ADP]
- effect on specificity and level of D-GPase activity (B. licheniformis D-GPase [2]; 9 mM ADP added to the assays): neither the specificity nor the level of activity of D-GPase was affected

Molecule: O=C(CO)COP(=O)(O)O [dihydroxyacetone phosphate]
- accepted as substrate / hydrolysis by D-GPase (B. licheniformis D-GPase [1]; phosphate): little or no hydrolysis; also recorded: does not accept
